Measured values published in patent US7674429B2, “Electrostatic disinfectant delivery” (JohnsonDiversey, Inc., priority 2001, dated 2010).

Columns and labels:
[1] = Viscosity measurement (Brookfield DV-III rheometer); type: physicochemical
Description: (§1) Various disinfectant compositions were measured to determine associated viscosity, conductivity and/or delivery rate parameters. Viscosity measurements were conducted with a Brookfield DV-III rheometer using procedures well known to those skilled in the art. Conductivity measurements were taken using a conductivity meter (Accumet Basic AV30) instrument using a two cell conductivity probe (epoxy body with a cell constant of 1.0). Delivery rates were determined with a preferred electrostatic delivery apparatus, available through In-Vironmental Integrity, Inc. of Minneapolis, Minn. under the “Aromasys” trademark using standard procedures and protocols.

[2] = Conductivity measurement (Accumet Basic AV30, two cell probe); type: physicochemical
Description: as §1

## OCCOCCOCCO [triethylene glycol]
[1]
  viscosity: 51.5 cps
[2]
  conductivity: 0.354 uS/cm
